Measured values as given in patent US10723711B2, “1,1,1-trifluoro-3-hydroxypropan-2-yl carbamate derivatives and 1,1,1-trifluoro-4-hydroxybutan-2-yl carbamate derivatives as MAGL inhibitors” (PFIZER INC., priority 2015, dated 2020).
Counter-ions that a name gives are not always drawn. Like-named read-outs stand apart in the source and are kept apart here.

Biological target: T1, human recombinant Monoacylglycerol Lipase (Homo sapiens, UniProt Q99685)
T1 sequence (Q99685 1-303): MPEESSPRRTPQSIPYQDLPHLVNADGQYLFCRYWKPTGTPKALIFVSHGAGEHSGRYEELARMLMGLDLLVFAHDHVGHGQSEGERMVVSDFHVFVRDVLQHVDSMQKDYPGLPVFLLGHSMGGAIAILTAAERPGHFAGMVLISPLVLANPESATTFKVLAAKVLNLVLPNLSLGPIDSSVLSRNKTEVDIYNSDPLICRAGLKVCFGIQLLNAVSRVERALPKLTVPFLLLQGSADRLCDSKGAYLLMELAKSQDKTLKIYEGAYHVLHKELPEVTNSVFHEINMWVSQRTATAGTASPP
Assay: MAGL inhibition enzymatic assay, fluorogenic substrate 7-HCA, IC50 at T=0 min or after 30 minute incubation (T=30 min)
Assay type: biochemical
Conditions: geometric mean of 2-4 determinations unless otherwise indicated
Experimental: An equal volume of 7-HCA in assay buffer with 10% DMSO was added either immediately (T=0 min) or after a 30 minute incubation (T=30 min) to initiate the reaction. […] After these dilutions, the final concentration of the test compound ranged from 3 μM to 0.03 nM. […] IC50 values were generated based on a four parameter fit model using ABASE software from IDBS.

[1] = T = 0 min (substrate added immediately), read-out: MAGL (T = 0 min) IC50
[2] = T = 30 min (30 minute incubation), read-out: MAGL (T = 30 min) IC50

| Structure (SMILES) | IC50 [1] [nM] | IC50 [2] [nM] |
| --- | --- | --- |
| CN(C)CCOP(=O)(O)OC[C@@H](OC(=O)N1CCC2(CC1)CN(S(=O)(=O)c1ccc(F)cc1)CCO2)C(F)(F)F (mixture of isomers) [Example 89] | > 3000 | > 3000 |
| O=C(O[C@H](CO)C(F)(F)F)N1CCC2(CC1)CN(CC1CCCOC1)CCO2 (single isomer, unassigned) [Example 5] | 1700 | 161 |
| CC1N(S(=O)(=O)c2ccc(F)cc2)CCOC12CCN(C(=O)O[C@H](CO)C(F)(F)F)CC2 (single isomer, unassigned) [Example 70] | 655 | 69 |
| O=C(O[C@H](CO)C(F)(F)F)N1CCC2(CC1)CC(n1cccn1)CO2 (single isomer, unassigned) [Example 104] | 1860 | 157 |
| CN(C1COC2(CCN(C(=O)O[C@H](CO)C(F)(F)F)CC2)C1)S(=O)(=O)C1CCOCC1 (single isomer, unassigned) [Example 116] | 986 | 84 |
| CN(C1COC2(CCN(C(=O)O[C@H](CO)C(F)(F)F)CC2)C1)S(=O)(=O)C1CCOCC1 (single isomer, unassigned) [Example 117] | 1970 | 153 |
| O=C(O[C@H](CO)C(F)(F)F)N1CCC2(CC1)CC(Oc1ccccn1)CO2 (single isomer, unassigned) [Example 129] | > 3000 | 474 |
| O=C(OC(C(F)(F)F)C(F)(F)CO)N1CCC2(CC1)CN(S(=O)(=O)c1ccc(F)cc1)CCO2 (single isomer, unassigned; ent-2) [Example 21, 1,1,1,3,3-Pentafluoro-4-hydroxybutan-2-yl 4-[(4-fluorophenyl)sulfonyl]-1-oxa-4,9-diazaspiro[5.5]undecane-9-carboxylate, ENT-2] | 599 | 53 |
| O=C(O[C@H](CO)C(F)(F)F)N1CCC(O)(CNS(=O)(=O)c2ccccc2)CC1 [Example 16, (2R)-1,1,1-Trifluoro-3-hydroxypropan-2-yl 4-hydroxy-4-{[(phenylsulfonyl)amino]methyl}piperidine-1-carboxylate] | 1840 | 161 |
| O=C1COC2(CCN(C(=O)O[C@H](CO)C(F)(F)F)CC2)CN1Cc1ccc(F)cc1 [Example 17, (2R)-1,1,1-Trifluoro-3-hydroxypropan-2-yl 4-(4-fluorobenzyl)-3-oxo-1-oxa-4,9-diazaspiro[5.5]undecane-9-carboxylate] | 951 | 110 |
| O=C(O[C@H](CO)C(F)(F)F)N1CCC2(CC1)CN(S(=O)(=O)N1CCOCC1)CCO2 [Example 22, (2R)-1,1,1-Trifluoro-3-hydroxypropan-2-yl 4-(morpholin-4-ylsulfonyl)-1-oxa-4,9-diazaspiro[5.5]undecane-9-carboxylate] | 2640 | 192 |
| O=C(O[C@H](CO)C(F)(F)F)N1C2CCC1CN(Cc1ccc(F)cc1)C2 [Example 23, (2R)-1,1,1-Trifluoro-3-hydroxypropan-2-yl 3-(4-fluorobenzyl)-3,8-diazabicyclo[3.2.1]octane-8-carboxylate] | > 1520 | 78 |
| CN(CC1(O)CCN(C(=O)O[C@H](CO)C(F)(F)F)CC1)S(=O)(=O)c1ccccc1 [Example 24, (2R)-1,1,1-Trifluoro-3-hydroxypropan-2-yl 4-hydroxy-4-{[methyl(phenylsulfonyl)amino]methyl}piperidine-1-carboxylate] | 1900 | 195 |
| O=C(O[C@H](CO)C(F)(F)F)N1CCN(Cc2ccc(F)cc2)CC1 [Example 25, (2R)-1,1,1-trifluoro-3-hydroxypropan-2-yl 4-(4-fluorobenzyl)piperazine-1-carboxylate] | 794 | 71 |
| O=C(O[C@H](CO)C(F)(F)F)N1CCC2(CC1)CN(Cc1ccc(F)cc1)S(=O)(=O)CO2 [Example 28, (2R)-1,1,1-Trifluoro-3-hydroxypropan-2-yl 4-(4-fluorobenzyl)-1-oxa-3-thia-4,9-diazaspiro[5.5]undecane-9-carboxylate 3,3-dioxide] | 696 | 85 |
| CN([C@H]1COC2(CCN(C(=O)O[C@H](COP(=O)(O)O)C(F)(F)F)CC2)C1)S(=O)(=O)c1ccccc1 [Example 30, (2R)-3,3,3-Trifluoro-2-[({(3R)-3-[methyl(phenylsulfonyl)amino]-1-oxa-8-azaspiro[4.5]dec-8-yl}carbonyl)oxy]propyl phosphate, disodium salt] | > 3000 | 549 |
| O=C(O[C@H](COP(=O)(O)O)C(F)(F)F)N1CCC2(CC1)CN(S(=O)(=O)c1ccc(F)cc1)CCO2 [Example 33, (2R)-3,3,3-Trifluoro-2-[({4-[(4-fluorophenyl)sulfonyl]-1-oxa-4,9-diazaspiro[5.5]undec-9-yl}carbonyl)oxy]propyl phosphate, (bis)-L-lysine salt] | > 3000 | > 3000 |
| O=C(OC(CO)C(F)(F)F)N1CCC(c2ccn(C3CCOCC3)n2)CC1 (stereo not drawn) [Example 38, 1,1,1-trifluoro-3-hydroxypropan-2-yl 4-[1-(tetrahydro-2H-pyran-4-yl)-1H-pyrazol-3-yl]piperidine-1-carboxylate] | 1470 | 77 |
| O=C(O[C@H](CO)C(F)(F)F)N1CCC2(CCCN(Cc3ccc(F)cc3)C2)CC1 [Example 41] | 1580 | 166 |

Compounds with a lower IC50 [1], results first:

| IC50 [1] [nM] | IC50 [2] [nM] | Structure (SMILES) |
| --- | --- | --- |
| 385 | 32 | O=C(O[C@H](CO)C(F)(F)F)N1CCC2(CC1)CC(c1cccnc1)CO2 (mixture of isomers) [Example 122] |
| 368 | 35 | O=C(O[C@H](CO)C(F)(F)F)N1C[C@@H]2CN(S(=O)(=O)c3ccc(F)c(F)c3)C[C@@H]2C1 [Example 13, (2R)-1,1,1-Trifluoro-3-hydroxypropan-2-yl (3aR,6aS)-5-[(3,4-difluorophenyl)sulfonyl]hexahydropyrrolo[3,4-c]pyrrole-2(1H)-carboxylate] |
| 485 | 45 | O=C(O[C@H](CO)C(F)(F)F)N1CCC2(CC1)CN(c1ccc(F)cn1)CCO2 [Example 14, (2R)-1,1,1-Trifluoro-3-hydroxypropan-2-yl 4-(5-fluoropyridin-2-yl)-1-oxa-4,9-diazaspiro[5.5]undecane-9-carboxylate] |
| 524 | 49 | CCC1CN(S(=O)(=O)c2ccc(F)cc2)CC2(CCN(C(=O)O[C@H](CO)C(F)(F)F)CC2)O1 (stereo partly drawn) [Example 18, (2R)-1,1,1-Trifluoro-3-hydroxypropan-2-yl 2-ethyl-4-[(4-fluorophenyl)sulfonyl]-1-oxa-4,9-diazaspiro[5.5]undecane-9-carboxylate] |
| 484 | 43 | O=C(O[C@H](CO)C(F)(F)F)N1CCC2(CC1)CC(Nc1ccccn1)CO2 (stereo partly drawn) [Example 27, (2R)-1,1,1-Trifluoro-3-hydroxypropan-2-yl 3-(pyridin-2-ylamino)-1-oxa-8-azaspiro[4.5]decane-8-carboxylate] |
| 339 | 32 | O=C(OC(CO)C(F)(F)F)N1CCC(c2ccnc(N3CCOCC3)n2)CC1 (stereo not drawn) [Example 35] |
| 494 | 50 | O=C(O[C@H](CO)C(F)(F)F)N1C[C@@H]2CN(S(=O)(=O)c3ccc(F)cc3)C[C@@H]2C1 [Example 40] |
| 560 | 46 | O=C(O[C@H](CO)C(F)(F)F)N1CCC(O)(CN(Cc2ccc(F)cc2)C2CCOCC2)CC1 [Example 46] |
